Measurements as given in patent US20170246189A1, “METHOD FOR TREATING UTERINE FIBROIDS” (LABORATOIRE HRA-PHARMA, priority 2008, published 2017).

How the values were obtained:
[1] = test system: benign metastatic leiomyoma; experiment: Compassionate treatment of benign metastatic leiomyoma (single patient); format: in vivo, human; settings: daily oral dose of 10-20 mg
Method: A person with known benign metastatic leiomyoma status post abdominal surgery that confirmed multiple nodules was treated with ulipristal (daily oral dose of 10-20 mg), in a compassionate protocol. […] More importantly, their pulmonary function tests improved from 50% of predicted to 103% of predicted after 3 months of treatment. They felt better.

[2] = test system: uterine fibroids; experiment: Randomized, placebo-controlled, double blinded, parallel trial: change in total fibroid volume by MR imaging; format: in vivo, human (women); settings: for reduction in fibroid volume: three months (90 days), placebo +6%
From the text: (§1) Healthy women aged 33-50 years with symptomatic fibroids and regular menstrual cycles were considered for enrollment.
(§2) Inclusion criteria included regular cycles and contraceptive use, and symptomatic fibroids as defined by ACOG practice bulletin 1994: • Excessive uterine bleeding evidenced by either of the following: profuse bleeding with flooding or clots or repetitive periods lasting for more than 8 days; or anemia due to acute or chronic blood loss; • or pelvic discomfort caused by leiomyomata, either acute or severe or chronic lower abdominal or low back pressure or bladder pressure with urinary frequency not due to urinary tract infection.
(§3) Exclusion criteria included pregnancy, hemoglobin <10 g/dL, current hormone therapy, rapidly enlarging uterus and FSH […]. MR images were obtained to record fibroid number, location and volume, before starting study drug and within 2 weeks of surgery. Women took ulipristal at an oral dose of 10 or 20 mg, or placebo (PLC: microcrystalline cellulose) for 3 cycles, or 90 days if they became anovulatory. The percent change in total fibroid volume was compared, Wilcoxon rank sum test and t-test were used as needed.

[3] = test system: menstrual bleeding in women with symptomatic fibroids; experiment: Randomized placebo-controlled trial: menstrual function / bleeding; format: in vivo, human (women); settings: for menstrual bleeding: 3 cycles/90 days, placebo had monthly menses; for menses compared to placebo: 10 or 20 mg daily, 90 days
From the text: as §1, §2, §3
Additional analyses evaluated treatment-related differences in menstrual function.

[4] = test system: fibroid tissue; experiment: Gene expression profiling (Affymetrix microarray, RT-PCR) of fibroid tissue after 90 days treatment; format: in vivo, human (women)
Method: (§4) Pre-menopausal women with symptomatic fibroids received ulipristal (10 or 20 mg; n=12) or placebo (PL) (n=6) in a blinded, randomized allocation, for 90 days before hysterectomy. No other hormonal therapy was given. Fibroid tissue and adjacent myometrium were collected at surgery and processed in RNAlater (for RNA isolation). Fibroid tissue also was processed for paraffin embedding (for immunohistochemisty (IHC) and TUNEL assay). Total RNA was used for Affymetrix microarray with the U133 Plus 2.0 human chip. Differential transcription of genes of interest was confirmed by RT-PCR analysis. The TUNEL assay and IHC for Ki67 and phosphorylaied histone 3 (phospho H3) were applied to paraffin embedded tissue sections, and the percentage of positive stained cells was noted to assess apoptosis and proliferation. RT-PCR results and proliferation assays were analyzed using two-tailed student t-test; Kruskal-Wallis test was used to assess TUNEL assay results; P<0.05 was considered significant.

[5] = test system: fibroid tissue; experiment: TUNEL assay and IHC for Ki67 and phospho H3 on fibroid tissue sections (apoptosis and proliferation); format: in vivo, human (women); settings: compared to placebo
Method: as §4

[6] = test system: fibroid; settings: Murphy 1995, Zeng 1998; cited from earlier work

17α-acetoxy-11β-[4N,N-dimethylamino-phenyl) -19-norpregna- 4,9-diene-3,20-dione [ulipristal]
liver nodule [1]: decrease in a liver nodule
right pleural effusion [1]: resolution of a right pleural effusion
pulmonary function tests ([1]; after 3 months of treatment, improved from 50% of predicted): 103 % of predicted
uterine fibroids ([1]; two uterine fibroids): some decrease in two uterine fibroids
change in total fibroid volume ([2]; 10 mg and 20 mg groups combined, three months, placebo 6%, p=0.01): -29%
reduction in fibroid volume ([2]; 10 mg oral daily): 36%
reduction in fibroid volume ([2]; 20 mg oral daily): 21%
menstrual bleeding ([3]; 10 mg oral daily): single episode of menstrual bleeding
menstrual bleeding ([3]; 20 mg oral daily): no woman receiving 20 mg had any bleeding
menses compared to placebo [3]: induced amenorrhea
menses compared to placebo ([3]; listed as CDB-2914): significant reduction in menses
genes expressed differentially between ulipristal and placebo ([4]; microarray, 2 fold change cut-off and P<0.02): 314 genes
Fold change of RT-PCR gene product, NDP ([4]; ulipristal (10 or 20 mg, 90 days) treated compared to placebo, P 0.001): −5.6
Fold change of RT-PCR gene product, PLP1 ([4]; ulipristal (10 or 20 mg, 90 days) treated compared to placebo, P 0.006): 9.2
Fold change of RT-PCR gene product, Wnt5A ([4]; ulipristal (10 or 20 mg, 90 days) treated compared to placebo, P 0.008): −2.4
Fold change of RT-PCR gene product, ZAK ([4]; ulipristal (10 or 20 mg, 90 days) treated compared to placebo, P 0.014): 1.5
Fold change of RT-PCR gene product, FAIM ([4]; ulipristal (10 or 20 mg, 90 days) treated compared to placebo, P 0.017): −1.8
Fold change of RT-PCR gene product, Clu ([4]; ulipristal (10 or 20 mg, 90 days) treated compared to placebo, P 0.019): −2.1
Fold change of RT-PCR gene product, Bcl2 ([4]; ulipristal (10 or 20 mg, 90 days) treated compared to placebo, P 0.224): −1.5
measures of proliferation ([5]; IHC Ki67 and phospho H3, fibroids after 90 days 10 or 20 mg): decreased measures of proliferation
measures of apoptosis ([5]; TUNEL assay, fibroids after 90 days 10 or 20 mg): increased measures of apoptosis

CC#C[C@]1(O)CC[C@H]2[C@@H]3CCC4=CC(=O)CCC4=C3[C@@H](c3ccc(N(C)C)cc3)C[C@@]21C [mifepristone]
fibroid size [6]: reduced fibroid size in a dose-dependent manner
